Test results as given in PubChem BioAssay (NCI).
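Step 1: Grow cells in 96-well plates. Step 2: Expose to compound for 48 hours at 5 concentrations. Step 3: Interpolate endpoints linearly; if unreached, use highest concentration. GI50 is the concentration that inhibits growth by half. Definition used: TGI = concentration required for complete inhibition of growth.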

Assays:
Assay in all cases: NCI tumour cell line growth inhibition, 48 h
NCI-H23 lung = system: NCI-H23 lung
SK-MEL-5 melanoma = system: SK-MEL-5 melanoma
K-562 leukemia = system: K-562 leukemia
MOLT-4 leukemia = system: MOLT-4 leukemia
MCF7 breast = system: MCF7 breast
OVCAR-5 ovarian = system: OVCAR-5 ovarian
HT29 colon = system: HT29 colon
HOP-92 NSCLC = system: HOP-92 NSCLC
SF-268 CNS = system: SF-268 CNS
OVCAR-4 ovarian = system: OVCAR-4 ovarian

C/C(=C\c1ccccc1)n1c(=O)cc(C)n1C
TGI (NCI-H23 lung): > 100 µM | TGI (SK-MEL-5 melanoma): > 100 µM | TGI (K-562 leukemia): > 100 µM | TGI (MOLT-4 leukemia): > 100 µM | TGI (MCF7 breast): > 100 µM | TGI (OVCAR-5 ovarian): > 100 µM | TGI (HT29 colon): > 100 µM | TGI (HOP-92 NSCLC): > 100 µM | TGI (SF-268 CNS): > 100 µM | TGI (OVCAR-4 ovarian): > 100 µM

H-KIFKKFKTIIKKVWRIFGRF-NH2
GI50 (NCI-H23 lung): 2.44 µM | TGI (NCI-H23 lung): 7.51 µM | GI50 (SK-MEL-5 melanoma): 2.3 µM | TGI (SK-MEL-5 melanoma): 5.8 µM | GI50 (K-562 leukemia): 2.82 µM | TGI (K-562 leukemia): > 100 µM | GI50 (MOLT-4 leukemia): 3.13 µM | TGI (MOLT-4 leukemia): > 100 µM | GI50 (MCF7 breast): 3.04 µM | TGI (MCF7 breast): > 100 µM | GI50 (OVCAR-5 ovarian): 2.1 µM | TGI (OVCAR-5 ovarian): 4.28 µM | GI50 (HT29 colon): 2.92 µM | TGI (HT29 colon): > 100 µM | GI50 (HOP-92 NSCLC): 2 µM | TGI (HOP-92 NSCLC): 4.67 µM | GI50 (SF-268 CNS): 2.08 µM | TGI (SF-268 CNS): 5.45 µM | GI50 (OVCAR-4 ovarian): 2.13 µM | TGI (OVCAR-4 ovarian): 5.4 µM
